What all share (type): cell-based
Assay [1] concerns Glioma SNB19M (MGMT+). Briefly: MTT assay for 7-day toxicity assay. The conditions noted are these: Glioma SNB19M (MGMT+), read-out: GI50. An outline of the steps: (§1)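 MGMT-transfected or vector-control glioma cells were seeded at 650 cells/well, attached overnight, and exposed for 7 days at 37 °C to compound at final 0.5–1000 μM. Viability was read by MTT (0.4 mg/mL, 4 h) formazan absorbance, with a day-0 plate included.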

Assay [2] deals with Glioma SNB19V (MGMT−). Briefly: MTT assay for 7-day toxicity assay. The conditions noted are these: Glioma SNB19V (MGMT−), read-out: GI50. An outline of the steps:
as §1

In assay [3] the test system is Glioma U373M (MGMT+). Briefly: MTT assay for 7-day toxicity assay. The conditions noted are these: Glioma U373M (MGMT+), 7-day MTT, single determinations, read-out: GI50. An outline of the steps: as §1
For assay [4], the system named is Glioma U373V (MGMT low). As to the kind of experiment: MTT assay for 7-day toxicity assay. The conditions noted are these: Glioma U373V (MGMT low), 7-day MTT, single determinations, read-out: GI50. In a few lines: as §1
For assay [5], the system named is Glioma SNB19VR (MGMT−) (TMZ resistant). Briefly: MTT assay for 7-day toxicity assay. The conditions noted are these: 168 h, Glioma SNB19VR (MGMT−, TMZ resistant); 7-day MTT; single determinations; read-out: GI50. Here is the method:
(§2) The cell culture techniques were carried out in a Class II microbiological safety cabinet which was swabbed with 70% IMS in distilled water before each use. Glioma cells were routinely cultured in Costar tissue culture flasks in RPMI 1640 liquid medium (containing 0.3 g/L L-glutamine and 2 g/L sodium bicarbonate) supplemented with 10% heat inactivated FBS (55-59° C.) for 1 hour to denature complement proteins which would otherwise evoke a cellular immune response resulting in cell lysis, 1% non-essential amino acids, 50 μg/mL gentamicin and 400 μg/mL G418 (vector selected reagent). Colorectal and melanoma cells were maintained in RPMI 1640 supplemented with 10% FBS. MRC-5 cells were cultured in EMEM. Cells were grown in a humidified incubator containing 5% CO2 at 37° C. Cells were sub-cultured when growth exceeded approximately 80% confluence, normally twice weekly. The medium was aspirated from the flask and approximately 0.8 mL trypsin-EDTA 1× solution added. The cells were re-incubated at 37° C. until they visibly detached from the flask. The cell suspension was then re-suspended in 5 mL medium and 0.5-1 mL of the cell suspension was transferred to a new flask (25 cm^2) with 7 mL culture medium. The cells were further incubated at 37° C. incubator. Cells were disposed after passage nearly 30 times in order to minimize phenotypic drift. New batches of cells were taken from liquid nitrogen storage by thawing rapidly (37° C. water bath) and re-suspension in a 25 cm^2 flask with 10 mL of culture medium. Two passages were allowed to resume normal growth. For long-term maintenance, viable cells at 60-80% confluence were detached by minimum amount of trypsin/EDTA and re-suspended in sterile filtered freezing medium (95% FBS, 5% DMSO), transferred to sterile cryogenic vials, and frozen overnight at −20° C. followed by −80° C. for 1-2 days and stored in liquid nitrogen for long term storage.
(§3) Most test compounds, including temozolomide, were prepared as stock solution (100 mM) in DMSO and stored at −20° C. for not more than 6 months.
(§4) This assay was first described in Mosmann, T., 1983, “Rapid colorimetric assay for cellular growth and survival: Application to proliferation and cytotoxicity assays”, Journal of Immunological Methods, Vol. 65, Nos. 1-2, pp. 55-63.
(§5) Glioma cell lines, SNB19 and U373, both MGMT transfected (i.e., SNB19M and U373M) and vector controls (i.e., SNB19V and U373V); colorectal carcinoma cell lines, HCT116, HT29, and DLD1; melanoma cell line, SKMEL-28; breast cell line, MCF-7; and normal human fetal lung fibroblast cell line, MRC-5; were harvested at 60-80% confluence—during the logarithmic phase of growth.
(§6) Following harvesting, cells in suspension were gently syringed through a 23 gauge needle to obtain a near-single cell suspension. The desired cell seeding densities were used and added into 96-well plates in 180 μL culture medium if only one test compound was to be added, or 160 μL if two test compounds were to be added in combination, which were allowed to attach at 37° C. (5% CO2) overnight. For the 7 day assay, the cell seeding density for different cell lines was as follows: SNB19V, SNB19M: 650 cells/well; U373V, U373M: 650 cells/well; SNB19VR, U373VR: 650 cells/well; HCT116, DLD-1, SKMEL-28, MRC-5, MCF-7: 400 cells/well.
(§7) The two peripheral lanes were used as blank wells (cell free) and filled with 200 μL of medium in order to minimise medium evaporation from the plate. A separate time zero (T0) plate was set up alongside other plates. Serial dilutions in tissue culture medium of a 100 mM stock of test compound in DMSO were prepared immediately before each assay to ten times the final concentrations required, and then 20 μL was added to each well (200 μL total media per well) to achieve final concentrations of 0.5 μM, 1 μM, 5 μM, 10 μM, 50 μM, 100 μM, 500 μM, and 1000 μM. A minimum of four wells received the same test compound concentration. […]

Assay [6] deals with Glioma U373VR (MGMT low) (TMZ resistant). Briefly: MTT assay for 7-day toxicity assay. The conditions noted are these: 168 h, Glioma U373VR (MGMT low, TMZ resistant); 7-day MTT; single determinations; read-out: GI50. The method, then:
as §2, §3, §4, §5, §6, §7

Assay [7] concerns Normal Human Fetal Lung Fibroblast MRC-5. As to the kind of experiment: MTT assay for 7-day toxicity assay. The conditions noted are these: Homo sapiens, MRC5, 168 h, Normal Human Fetal Lung Fibroblast MRC-5; 7-day MTT; single determinations; read-out: GI50. The method, then:
as §2, §3, §4, §5, §6, §7

In assay [8] the test system is glioma MGMT− and MGMT+ cell lines. As to the kind of experiment: MTT assay, glioma lines as a whole. The note with it: for activity in words: glioma MGMT− and MGMT+ cell lines.
Excerpt: as §4, §5, §6
(§8) The two peripheral lanes were used as blank wells (cell free) and filled with 200 μL of medium in order to minimise medium evaporation from the plate. A separate time zero (T0) plate was set up alongside other plates. Serial dilutions in tissue culture medium of a 100 mM stock of test compound in DMSO were prepared immediately before each assay to ten times the final concentrations required, and then 20 μL was added to each well (200 μL total media per well) to achieve final concentrations of 0.5 μM, 1 μM, 5 μM, 10 μM, 50 μM, 100 μM, 500 μM, and 1000 μM. A minimum of four wells received the same test compound concentration. To control wells, including those in the T0 plate, 20 μL of medium was added. Previous assays had been carried out to verify that cell viability was not affected by the amount of DMSO added into the test compound-treated wells. A separate plate treated in the same way, but free of test compound, was used as a measure of cell viability at the time of drug addition (day 0).
(§9) After incubation at 37° C., 5% CO2 for 7 days (or immediately for the day 0 plate), cell viability was quantified using the MTT assay. 50 μL of sterile filtered MIT (3-(4,5-dimethylthiazol-2-yl)-2,5-diphenyltetrazolium bromide) (2 mg/mL in phosphate buffered saline) were added to each well (final concentration 0.4 mg/mL) and the plates were re-incubated for 4 hours to allow metabolic conversion of MTT by dehydrogenases in viable cells to insoluble formazan crystals. The medium and any unconverted MTT was aspirated, 150 μL of DMSO was added to each well, and the plates were shaken on a plate shaker (Stuart Scientific 503) to ensure complete formazan solubilisation.
(§10) The intensity of absorbance is directly proportional to cell viability. A linear relationship exists between cell number and the amount of formazan and so the mean absorbance determined for each well of the same concentration can be used as a quantitative measure of viable cells compared to the controls. A graph of absorbance against drug concentration was plotted and the test compound concentration (GI50) causing 50% inhibition of control cell growth (absorbance increase from day 0) was calculated by interpolation.

Assay [9] deals with Breast MCF-7 (MMR proficient). As to the kind of experiment: MTT assay for 7-day toxicity assay. The note with it: Homo sapiens, MCF7, 168 h; Breast MCF-7 (MMR proficient); 7-day MTT; single determinations; read-out: GI50. The method, then: as §2, §3, §4, §5, §6, §7
For assay [10], the system named is Colon HCT116 (MMR mutated). Briefly: MTT assay for 7-day toxicity assay. The conditions noted are these: Colon HCT116 (MMR mutated), 7-day MTT, single determinations, read-out: GI50. The method, then: as §2, §3, §4, §5, §6, §7
For assay [11], the system named is Colon HT29 (MMR proficient). As to the kind of experiment: MTT assay for 7-day toxicity assay. The note with it: Homo sapiens, HT-29, 168 h, Colon HT29 (MMR proficient); 7-day MTT; single determinations; read-out: GI50. The method, then:
as §2, §3, §4, §5, §6, §7

Assay [12] has as its system Melanoma SKMEL-28 (MMR proficient). Briefly: MTT assay for 7-day toxicity assay. The note with it: Homo sapiens, SK-MEL-28, 168 h, Melanoma SKMEL-28 (MMR proficient); 7-day MTT; single determinations; read-out: GI50. The method, then:
as §2, §3, §4, §5, §6, §7

For assay [13], the system named is range of other cell lines (e.g., colon, melanoma). As to the kind of experiment: MTT assay, other cell lines. The note with it: other lines (e.g., colon, melanoma).
Excerpt: as §4, §5, §6, §8, §9, §10

[14] abbreviates: 168 h, 7-day MTT, single determinations.
The mark [15] stands for this setting: 7-day MTT, single determinations.

Each structure is given as a SMILES string. Values joined by “and” are separate entries in the source; they are usually repeats but may differ in a detail not shown here. Identical values can stand only once. Like-named read-outs stand apart in the source and are kept apart here.

In the case of `CC[C@@H](c1ccccc1)n1nnc2c(C(N)=O)ncn2c1=O` [BB-004, (S)-3-(-1-Phenylpropyl)-8-carbamoylimidazotetrazin-4-one], the GI50 is 48.4 µM in assay [1] (setting [14]); 60 µM in assay [1] (setting [15]); 52.4 µM in assay [2] (setting [14]); 65.8 µM in assay [2] (setting [15]); 63.1 µM in assay [3] (168 h); 99.4 µM in assay [3]. The GI50 was found to be 84.3 µM in assay [4] (168 h); 72.8 µM in assay [4]; 29.1 µM in assay [5]; 35.8 µM in assay [6]; 189 µM in [7].

For `NC(=O)Cn1nnc2c(C(N)=O)ncn2c1=O` [JJ-001, 2-(8-Carbamoyl-oxoimidazo[5,1-d][1,2,3,5]tetrazin-3(4H)-yl)ethanamide], the GI50 in [1] (setting [14]) came to 107 µM; in assay [1] (setting [15]), 83.2 µM; in [2] (setting [14]), 37.5 µM; in assay [2] (setting [15]), 38.5 µM; in assay [3] (168 h) it was 86.7 µM; in assay [3] it was 58 µM. Also, the figures for the GI50 in assay [4] (168 h) and in assay [4] were 56.2 µM and 74.6 µM, respectively. For the same compound, the activity in words result in assay [8] is on record as “good activity”.

`COc1cccc(Cn2nnc3c(C(N)=O)ncn3c2=O)c1` [AA-003, 3-(3-Methoxybenzyl)-4-oxo-3,4-dihydroimidazo[5,1-d][1,2,3, 5]tetrazine-8-carboxamide]: the GI50 in assay [9] worked out at 316 µM; in [10], 280 µM; in [10] (Homo sapiens, HCT-116, 168 h), 309 µM; in assay [11], 345 µM; in [12] it was 422 µM.

`CCOC(=O)CCn1nnc2c(C(N)=O)ncn2c1=O` [LL-002, Ethyl 3-(8-carbamoyl-oxoimidazo[5,1-d][1,2,3,5]tetrazin-3(4H)-yl)propanoate]: the GI50 in assay [1] (setting [14]) is 248 µM; in [1] (setting [15]) it was 261 µM; in assay [2] (setting [14]), 447 µM; in [2] (setting [15]) it was 288 µM; in assay [3] (168 h) it was 156 µM; in assay [3] it was 131 µM. For the same compound, the “fold less active than the acetic acid ester derivatives LL-003 and PX-016” value in assay [8] (Table 10, glioma cell lines) was above 10 fold.

For `COC(=O)Cn1nnc2c(C(N)=O)ncn2c1=O` [LL-003, Methyl 2-(8-carbamoyl-4-oxoimidazo[5,1-d][1,2,3,5]tetrazin-3(4H)-yl)acetate], the concentration for 50% growth inhibition (GI50) was 34.8 µM in [1] (setting [14]); 33.5 µM in assay [1] (setting [15]); 21.3 µM in [2] (setting [14]); 29.7 µM in assay [2] (setting [15]); 25.4 µM in assay [3] (168 h); 33.7 µM in assay [3]. Besides, the GI50 in [4] (168 h) was determined as 9.6 µM; in assay [4], 11.6 µM. For the same compound, the activity in words entry in assay [8] was “surprising efficacy”.

On to `CS(=O)(=O)CCn1nnc2c(C(N)=O)ncn2c1=O` [UU-001, 3-(2-Methanesulfonyl-ethyl)-4-oxo-3,4-dihydro-imidazo[5,1-d][1,2,3,5]tetrazine-8-carboxylic acid amide], for which the GI50 in assay [2] is 92.4 µM and 154 µM. Moreover, the activity in words result in [13] and in assay [8] was “surprising efficacy” throughout.

Consider `CS(=O)(=O)Cn1nnc2c(C(N)=O)ncn2c1=O` [UU-002, 3-Methanesulfonylmethyl-4-oxo-3,4-dihydro-imidazo[5,1-d][1,2,3,5]tetrazine-8-carboxylic acid amide], for which the GI50 in assay [1] was 14.5 µM and 13.7 µM and 26.6 µM. The activity in words entry in assay [13] and in [8] was “surprising efficacy” each time.

(Values after patent US8450479B2, “3-substituted-4-oxo-3,4-dihydro-imidazo[5,1-d][1,2,3,5-tetrazine-8-carboxylic acid amides and their use” (Pharminox Limited, priority 2007, dated 2013).)
